Assay results reported in patent publication US12435380B2, “Compositions and methods for the diagnosis and treatment of ALT cancer” (Texas Tech University System, priority 2018, dated 2025).
Entries after “also recorded” stand apart in the source; their conditions may differ.

How the values were obtained:
p21 and NOXA = test: Immunoblots of apoptotic proteins after PRIMA-1MET; type: cell-based, human; conditions: TP53-mutated, 20 uM, 6, 12 and 24 hours
Procedure: FIGS. 5A and 5B are quantitative representations of immunoblots of apoptotic proteins with three ALT+ cell lines and two TERT+ lines. All cell lines were treated with 20 uM of PRIMA-1MET for 6, 12 and 24 hours. All cell lines were known to have TP53-inactivating mutations. […] We hypothesize this is due to the constitutive activation of ATM in ALT positive cell lines, which will trigger senescence and apoptosis once PRIMA-1MET refolds mutant TP53.

[1] = test system: ALT+ neuroblastoma cell lines; test: DIMSCAN cytotoxicity, neuroblastoma cell lines; type: cell-based, human
Procedure: FIG. 6 is a graph of survival fraction versus PRIMA-1MET concentration and illustrates high cytotoxicity of PRIMA-1MET in ALT+ versus TERT+(ALT negative) NB cell lines. FIG. 6 illustrates NB 5% O2. PRIMA-1MET dose response curves were analyzed using the DIMSCAN cytotoxicity assay system in 4 ALT+ neuroblastoma cell lines compared to 3 non-ALT, but TP53-mut cell lines.
FIGS. 7A and 7B are graphs of survival fraction versus PRIMA-1MET concentration and illustrate cytotoxicity of PRIMA-1MET in ALT+NB cell lines as enhanced by hypoxia. PRIMA-1MET cytotoxicity was assessed for 3 ALT neuroblastoma cell lines in ambient air culture conditions (20% O2) compared with bone marrow level hypoxia (5% O2).

[2] = test system: ALT rhabdomyosarcoma cell lines; test: DIMSCAN cytotoxicity, rhabdomyosarcoma cell lines; type: cell-based, human; conditions: 5% O2
Procedure: FIGS. 8A and 8B are graphs of survival fraction versus PRIMA-1MET concentration and illustrate Cytotoxicity of PRIMA-1MET in ALT vs TERT+ Rhabdomyosarcoma. FIG. 8A illustrates ALT+ rhabdomyosarcoma grown in 5% O2 and FIG. 8B illustrates TERT+ rhabdomyosarcoma grown in 5% O2. Cytotoxicity of PRIMA-1MET was assessed for ALT and non-ALT (TERT+) rhabdomyosarcoma cell lines using DIMSCAN.

[3] = test system: ALT lymphoma cell lines TX-LY-064hnb, TX-LY-245h, COG-LY-357h; test: DIMSCAN cytotoxicity, lymphoma cell lines; type: cell-based, human; conditions: vs TERT+ lines SUP-TI and COG-LY-459, 5% O2, p53 dysfunction
Source text: FIGS. 9A and 9B are graphs of survival fraction versus PRIMA-1MET concentration for ALT+p53 non-functional lymphoma 5% O2 and TERT+p53 non-functional lymphoma 5% O2, respectively. […] All lines had some form of p53 dysfunction.

[4] = test system: ALT+ p53 non-functional adult cell lines; test: Cytotoxicity, ALT+ adult cell lines; type: cell-based, human; conditions: 5% O2
Source text: FIG. 10 is a graph of survival fraction versus PRIMA-1MET concentration for ALT+ adult cell lines showing the high activity of PRIMA1MET against ALT breast cancer, colorectal cancer, ovarian cancer, lung cancer, and leiomyosarcoma cell lines;
FIG. 10 is a graph of survival fraction versus PRIMA-1MET concentration for ALT+p53 non-functional adult cell lines 5% O2. All lines had some form of p53 dysfunction.

[5] = test system: ALT cell lines from various histologies; test: Summary of cytotoxicity (IC50/IC90), ALT vs non-ALT cell lines of all histologies; type: cell-based, human
Source text: […] are graphs of PRIMA-1MET cytotoxicity of ALT vs non-ALT cell lines and illustrate PRIMA-1MET IC50/IC90 for all tested cancers. FIG. 8A illustrates IC50 20% O2, and FIG. 8B illustrates IC90 20% O2. IC50 5% O2, and IC90 5% O2 were also observed. Cytotoxicity data on all ALT cell lines from various histologies were compared with non-ALT cell lines of the same histologies, presented as inhibitory+cytotoxic concentrations for 50% (IC50) and 90% (IC90) of the cells.
FIGS. 11A and 11B are graphs showing cytotoxicity of ALT and non-ALT cell lines for IC50 and IC90. Cytotoxicity data on all ALT cell lines from various histologies compared with non-ALT cell lines of the same histologies. The data is presented as inhibitory+cytotoxic concentrations for 50% (IC50) and 90% (IC90) of the cells.

[6] = test system: ALT neuroblastoma cell line CHLA-90; test: PRIMA-1MET sensitivity after shRNA knockdown of ATM; type: cell-based, human
Source text: FIGS. 20A and 20B illustrate data for cell line CHLA-90. shRNA knockdown of ATM in the ALT neuroblastoma cell line CHLA-90 led to hyper-resistance to PRIMA-1MET. We hypothesize this is due to the loss of constitutive activation of ATM in ALT positive cell lines which would trigger senescence and apoptosis once PRIMA-1MET refolds mutant p53 in the presence of ATM.

ALT+ cell lines = test: PRIMA-1MET IC50 with ATM or ATR kinase inhibitor, ALT+ lines; type: cell-based, human; conditions: with ATM kinase inhibitor (ATMi) or ATR kinase inhibitor (ATRi)
Source text: (§1) FIGS. 21A and 21B illustrate effect of inhibition of ATM or ATR kinase on sensitivity of ALT+vs TERT+(ALT-negative) using ATM kinase inhibitor (ATMi) or ATR kinase inhibitor (ATRi) ir ALT+ and TERT+ cell lines;
(§2) FIGS. 21A and 21B illustrate inhibition of kinase inhibitors for ALT+ and TERT+ cell lines Kinase Inhibitors antagonize PRIMA-1MET in ALT+ cell lines.

TERT+ cell lines = test: PRIMA-1MET IC50 with ATM or ATR kinase inhibitor, TERT+ lines; type: cell-based, human; conditions: with ATM kinase inhibitor (ATMi) or ATR kinase inhibitor (ATRi)
Source text: as §1, §2

[7] = test system: ALT+ neuroblastoma xenografts CHLA-90m and COG-N-669x; test: ALT neuroblastoma xenografts, tumor volume; parameters: species or system athymic nude mice; conditions: mouse, in vivo
Procedure: FIGS. 22A and 22B are graphs tumor volume versus time for CHLA-90m and COG-N-669x. The neuroblastoma cell lines CHLA-90m and COG-N-669x were injected into athymic nude mice and drugged with PRIMA-1Met and BSO.

[8] = cited from earlier work
[9] = test system: ALT neuroblastoma cell lines; test: PRIMA-1 activity in neuroblastoma cell lines, ALT vs non-ALT; type: cell-based, human; conditions: ALT vs TP53-mutated non-ALT neuroblastoma cell lines
Source text: Neuroblastoma provides a unique cancer for studying the role of changes that lead to inactivation of p53, such as TP53 inactivating mutations. This is because, unlike many other cancers, neuroblastomas at diagnosis and before therapy most frequently are p53 functional and there is a very low incidence of TP53 mutations. However, the incidence of p53 loss-of-function (often by TP53 mutation) increases in progressive disease after therapy. Because PRIMA-1 was developed as a drug that could restore p53 function to tumors with TP53 mutations, we assessed the activity of PRIMA-1 in neuroblastoma cell lines. Our panel of neuroblastoma cell lines includes p53-functional cell lines and those that have p53 loss-of-function and lines with TP53 mutations. The panel includes cell lines with TP53 mutations that are telomerase-positive (high TERT expression) and also TERT-low ALT (C-circle-positive) cell lines.
We have determined that the C-circle assay (specific for ALT cancers) identifies cancers that are especially responsive to PRIMA-1. While PRIMA-1 and APR-246 are being developed to treat TP53-mutated caners, only a subset of the latter respond to the drug as shown in preclinical studies and in the early phase I clinical trials. […]

ALT cell lines = test: PRIMA-1 activity in ALT cell lines from cancers other than neuroblastoma; type: cell-based, human; conditions: all ALT cell lines examined to date

COCC1(CO)C(=O)C2CCN1CC2 (stereo not drawn) [PRIMA-1MET]
NOXA expression (p21 and NOXA; three ALT+ cell lines): NOXA expression during longer treatment | p21 expression (p21 and NOXA; three ALT+ cell lines): substantial increase | NOXA expression (p21 and NOXA; two non-ALT (TERT+) cell lines): very little increase | p21 expression (p21 and NOXA; two non-ALT (TERT+) cell lines): very little increase | cytotoxicity in hypoxia vs ambient air ([1]; 3 ALT neuroblastoma cell lines, 5% O2 compared with 20% O2): even great cytotoxicity | sensitivity (survival fraction), ALT vs non-ALT neuroblastoma ([1]; 4 ALT+ vs 3 non-ALT TP53-mut cell lines, 5% O2): significantly more sensitive | sensitivity (survival fraction), ALT vs non-ALT rhabdomyosarcoma [2]: more sensitive | sensitivity (survival fraction), ALT vs TERT+ lymphoma [3]: more sensitive | activity against ALT breast, colorectal, ovarian, lung cancer and leiomyosarcoma cell lines [4]: high activity | sensitivity by IC50 and IC90, ALT vs non-ALT cell lines ([5]; all tested histologies): significantly more sensitive | ALT vs non-ALT difference in IC50/IC90 in hypoxia ([5]; bone marrow level hypoxia (5% O2) vs 20% O2): differences were greater | response to PRIMA-1MET after ATM knockdown [6]: hyper-resistance | change of IC50 with kinase inhibitors (ALT+ cell lines): greatly increases | change of IC50 with kinase inhibitors (TERT+ cell lines): little effect | tumor volume, single agent relative to control [7]: greater amount of activity | plasma levels ([8]; at the maximally tolerated dose, out to ~12 hours): > 10 µg/mL | maximally tolerated dose ([8]; phase I, hematological malignancies and hormone-refractory prostate cancer): 60 μg/m^2 | bone marrow toxicity ([8]; phase I): not observed | most common adverse events ([8]; phase I): dizziness, headache, confusion, and other neurological complications

O=C1C2CCN(CC2)C1(CO)CO [PRIMA-1]
activity of PRIMA-1 in ALT vs non-ALT neuroblastoma [9]: significantly greater in ALT neuroblastoma cell lines; also recorded: significantly higher in ALT neuroblastoma | sensitivity of ALT cell lines to PRIMA-1 (ALT cell lines): highly sensitive
